Assay results taken from patent publication US11976083B2, “Inhibitors of peptidylarginine deiminases” (Gilead Sciences, Inc., priority 2020, dated 2024).
pIC50: −log10 of the molar value.

Target: T1, human PAD4 (Homo sapiens, UniProt Q9UM07)
T1 construct: human PAD4 (NM_012387), A2-P663, was PCR amplified; His-SUMO (N, cleaved yes); made in house; host or cells: E. coli BL21(DE3)
Test: In vitro PAD4 BAEE biochemical assay
Conditions: BAEE substrate 3 mM, 5 nM PAD4, 2 mM calcium chloride; geometric mean of multiple experiments
In short: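 Recombinant human PAD4 (5 nM final) with 2 mM CaCl2 was preincubated with compound 30 min at 25 °C in MOPS buffer pH 7.6, then reacted with 3 mM BAEE for 2 h at 25 °C. After EDTA stop, released ammonia was detected by o-phthalaldehyde/DTT fluorescence (ex 405/em 535 nm); IC50 from four-parameter fit, geometric mean.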

T1 sequence (Q9UM07 2-663): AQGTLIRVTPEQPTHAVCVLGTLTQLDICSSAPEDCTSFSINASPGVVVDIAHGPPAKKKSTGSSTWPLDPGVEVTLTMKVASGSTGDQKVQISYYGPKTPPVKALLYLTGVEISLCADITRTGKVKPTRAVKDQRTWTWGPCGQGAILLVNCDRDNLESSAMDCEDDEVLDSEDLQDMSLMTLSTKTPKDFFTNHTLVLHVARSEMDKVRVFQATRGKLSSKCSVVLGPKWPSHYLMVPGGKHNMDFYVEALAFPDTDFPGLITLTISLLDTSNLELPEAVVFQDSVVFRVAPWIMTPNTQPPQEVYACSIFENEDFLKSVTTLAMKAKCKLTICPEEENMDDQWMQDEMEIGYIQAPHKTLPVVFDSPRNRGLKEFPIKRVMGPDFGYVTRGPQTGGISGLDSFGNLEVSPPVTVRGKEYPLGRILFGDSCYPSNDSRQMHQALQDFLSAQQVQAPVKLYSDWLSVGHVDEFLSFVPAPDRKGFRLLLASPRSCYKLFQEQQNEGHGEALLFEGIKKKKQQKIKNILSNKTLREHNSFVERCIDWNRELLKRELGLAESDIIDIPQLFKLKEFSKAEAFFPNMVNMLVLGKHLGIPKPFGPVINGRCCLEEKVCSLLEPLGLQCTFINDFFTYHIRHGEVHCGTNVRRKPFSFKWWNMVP

pIC50 | Structure (SMILES)
7.46 | COc1cc(C(=O)N2[C@H]3CC[C@@H]2[C@H](N)C3)cc2nc(-c3cc4ccc5nc4n3CCCCCC[C@H](C)C(=O)N[C@@H]5C)n(C)c12 [Example 137, (8~{S},11~{R})-17-[5-[(1~{R},2~{R},4~{S})-2-amino-7-azabicyclo[2.2.1]heptane-7-carbonyl]-7-methoxy-1-methyl-benzimidazol-2-yl]-8,11-dimethyl-1,10,19-triazatricyclo[10.5.2.0^{15,18}]nonadeca-12(19),13,15(18),16-tetraen-9-one]
6.94 | CCO[C@@H]1CCN(C(=O)c2cc(OC)c3c(c2)nc(-c2cc4ccc5nc4n2CCCCCCC(C)(C)C(=O)N[C@@H]5C)n3C)C[C@@H]1N [Example 104, (11~{R})-17-[5-[(3~{S},4~{R})-3-amino-4-ethoxy-piperidine-1-carbonyl]-7-methoxy-1-methyl-benzimidazol-2-yl]-8,8,11-trimethyl-1,10,19-triazatricyclo[10.5.2.0^{15,18}]nonadeca-12(19),13,15(18),16-tetraen-9-one]
6.37 | COc1cc(C(=O)N2CCC[C@@H](N)C2)cc2nc(-c3cc4ccc5cc4n3CCCCCCNC(=O)c3ncccc3-5)n(C)c12 [Example 52, 17-[5-[(3~{R})-3-aminopiperidine-1-carbonyl]-7-methoxy-1-methyl-benzimidazol-2-yl]-6,9,16-triazatetracyclo[14.5.2.0^{2,7}.0^{19,23}] tricosa-1(22),2,4,6,17,19(23),20-heptaen-8-one]
7.66 | CO[C@@H]1CCN(C(=O)c2cc(F)c3c(c2)nc(-c2cc4ccc5nc4n2CC(F)(F)CCC[C@]2(F)C[C@H]2C(=O)N[C@@H]5C)n3C2CC2)C[C@@H]1N [Example 700, (2~{R},5~{S},7~{S})-14-[5-[(3~{S},4~{R})-3-amino-4-methoxy-piperidine-1-carbonyl]-1-cyclopropyl-7-fluoro-benzimidazol-2-yl]-7,11,11-trifluoro-2-methyl-3,13,19-triazatetracyclo[11.5.2.0^ {5,7}.0^{16,20}]icosa-1(19),14,16(20),17-tetraen-4-one]
7.28 | CO[C@@H]1CCN(C(=O)c2cc3nc(-c4cc5ccc6nc5n4CCCCC[C@@H]4C[C@H]4C(=O)N[C@@H]6C)n(C4CC4)c3cc2F)C[C@@H]1N [Example 572, (2~{R},5~{R},7~{R})-14-[5-[(3~{S},4~{R})-3-amino-4-methoxy-piperidine-1-carbonyl]-1-cyclopropyl-6-fluoro-benzimidazol-2-yl]-2-methyl-3,13,19-triazatetracyclo [11.5.2.0^{5,7}.0^{16,20}] icosa-1(19),14,16(20), 17-tetraen-4-one]
4.56 | CN[C@H]1CN(C(=O)c2cc(OC)c3c(c2)nc(-c2cc4ccc5nc4n2CCCCCCC(C)(C)C(=O)N[C@@H]5C)n3C)CC[C@H]1OC [Example 105, (11~{R})-17-[7-methoxy-5-[(3~{S},4~{R})-4-methoxy-3-(methylamino)piperidine-1-carbonyl]-1-methyl-benzimidazol-2-yl]-8,8,11-trimethyl-1,10,19-triazatricyclo[10.5.2.0^{15,18}]nonadeca-12(19),13,15(18),16-tetraen-9-one]
7.33 | COc1cc(C(=O)N2C[C@H](N)[C@@H]3CC[C@H]2C3)cc2nc(-c3cc4ccc5nc4n3CCCCC[C@@]3(F)C[C@]3(C)C(=O)N[C@@H]5C)n(C)c12 [Example 915, (2~{R},5~{R},7~{R})-14-[5-[(1~{S},4~{R},5~{R})-4-amino-2-azabicyclo[3.2.1]octane-2-carbonyl]-7-methoxy-1-methyl-benzimidazol-2-yl]-7-fluoro-2,5-dimethyl-3,13,19-triazatetracyclo[11.5.2.0^ {5,7}.0^{16,20}]icosa-1(19),14,16(20),17-tetraen-4-one]
7.12 | COc1cc(C(=O)N[C@H]2CNCC[C@@H]2F)cc2nc(-c3cc4ccc5nc4n3CCCCCc3c(cnn3C)C(=O)N[C@@H]5C)n(C)c12 [Example 180, 2-[(2~{R})-2,8-dimethyl-4-oxo-3,7,8,15,21-pentazatetracyclo[13.5.2.0^{5,9}.0^{18,22}]docosa-1(21),5(9),6,16,18(22),19-hexaen-16-yl]-~{N}-[(3~{S},4~{S})-4-fluoro-3-piperidyl]-7-methoxy-1-methyl-benzimidazole-5-carboxamide]
7.19 | COc1cc(C(=O)N2[C@H]3CC[C@@H]2[C@H](N)C3)cc2nc(-c3cc4ccc5nc4n3CCCCCCCC3(CCC3)C(=O)N[C@@H]5C)n(C)c12 [Example 280]
7.51 | [2H]C([2H])([2H])O[C@@H]1CCN(C(=O)c2cc(OC)c3c(c2)nc(-c2cc4ccc5nc4n2CC(F)(F)CCC[C@@H]2C[C@H]2C(=O)N[C@@H]5C)n3C)C[C@@H]1N [Example 637, (2~{R},5~{R},7~{R})-14-[5-[(3~{S},4~{R})-3-amino-4-(trideuteriomethoxy)piperidine-1-carbonyl]-7-methoxy-1-methyl-benzimidazol-2-yl]-11,11-difluoro-2-methyl-3,13,19-triazatetracyclo[11.5.2.0^ {5,7}.0^{16,20}] icosa-1(19),14,16(20), 17-tetraen-4-one]
7.44 | COc1cc(C(=O)N2CC[C@H]3CCN[C@H]3C2)cc2nc(-c3cc4ccc5nc4n3CCCCC[C@@H]3C[C@H]3C(=O)N[C@@H]5C)n(C)c12 [Example 531, (2~{R},5~{R},7~{R})-14-[5-[(3~{a}-{R},7~ {a}~{R})-1,2,3,3~ {a},4,5,7,7~{a}-octahydropyrrolo[2,3-c]pyridine-6-carbonyl]-7-methoxy-1-methyl-benzimidazol-2-yl]-2-methyl-3,13,19-triazatetracyclo[11.5.2.0^ {5,7}.0^{16,20}]icosa-1(19),14,16(20),17-tetraen-4-one]
7.38 | COc1cc(C(=O)N[C@H]2CNCC[C@@H]2F)cc2nc(-c3cc4ccc5nc4n3CCCCC[C@@H]3C[C@H]3C(=O)N[C@@H]5C)n(C)c12 [Example 184, ~{N}-[(3~{S},4~{S})-4-fluoro-3-piperidyl]-7-methoxy-1-methyl-2-[(2~{R},5~{R},7~{R})-2-methyl-4-oxo-3,13,19-triazatetracyclo[11.5.2.0^{5,7}.0^{16,20}]icosa-1(19),14,16(20),17-tetraen-14-yl]benzimidazole-5-carboxamide]
6.90 | COc1cc(C(=O)N2[C@H]3CC[C@@H]2[C@H](N)C3)cc2nc(-c3cc4ccc5nc4n3CCCCCCCC(=O)N3CC4(CC4)CC53)n(C)c12 (stereo partly shown) [Example 134, 16-[5-[(1˜{R},2˜{R},4˜{S})-2-amino-7-azabicyclo[2.2.1]heptane-7-carbonyl]-7-methoxy-1-methyl-benzimidazol-2-yl]spiro[6,15,21-triazatetracyclo[13.5.2.0^{2,6}.0^{18,22}]docosa-1(21),16,18(22),19-tetraene-4,1′-cyclopropane]-7-one]
7.57 | COc1cc(C(=O)N2CC[C@@H](OC)[C@@H](N)C2)cc2nc(-c3cc4ccc5nc4n3CC(F)(F)CCC[C@@H]3C[C@H]3C(=O)N(C)[C@@H]5C)n(C)c12 [Example 692, (2~{R},5~{R},7~{R})-14-[5-[(3~{S},4~{R})-3-amino-4-methoxy-piperidine-1-carbonyl]-7-methoxy-1-methyl-benzimidazol-2-yl]-11,11-difluoro-2,3-dimethyl-3,13,19-triazatetracyclo[11.5.2.0^ {5,7}.0^{16,20}]icosa-1(19),14,16(20),17-tetraen-4-one]
7.17 | COc1cc(C(=O)N2[C@H]3CC[C@@H]2[C@H](N)C3)cc2nc(-c3cc4ccc5nc4n3CC(C)(C)CCCCCC(=O)N[C@@H]5C)n(C)c12 [Example 141, (11~{R})-17-[5-[(1~{R},2~{R},4~{S})-2-amino-7-azabicyclo[2.2.1]heptane-7-carbonyl]-7-methoxy-1-methyl-benzimidazol-2-yl]-3,3,11-trimethyl-1,10,19-triazatricyclo[10.5.2.0^{15,18}]nonadeca-12(19),13,15(18),16-tetraen-9-one]
7.24 | COc1cc(C(=O)N2[C@H]3CC[C@@H]2[C@H](N)C3)cc2nc(-c3cc4ccc5nc4n3CCCCC[C@H]3C[C@@H]3C(=O)N[C@@H]5C)n(C)c12 (single isomer, unassigned) [Example 224, (2˜{R},5˜{S},7˜{S})-14-[5-[(1˜{R},2˜{R},4˜{S})-2-amino-7-azabicyclo[2.2.1]heptane-7-carbonyl]-7-methoxy-1-methyl-benzimidazol-2-yl]-2-methyl-3,13,19-triazatetracyclo[11.5.2.0^{5,7}.0^{16,20}]icosa-1(19),14,16(20),17-tetraen-4-one]
7.31 | COc1cc(C(=O)N2C[C@H](N)[C@@H]3CC[C@H]2C3)cc2nc(-c3cc4ccc5nc4n3CCCCCOC3(CC3)C(=O)N[C@@H]5C)n(C)c12 [Example 910, (11~{R})-17-[5-[(1~{S},4~ {R},5~{R})-4-amino-2-azabicyclo [3.2.1]octane-2-carbonyl]-7-methoxy-1-methyl-benzimidazol-2-yl]-11-methyl-spiro[7-oxa-1,10,19-triazatricyclo[10.5.2.0^{15,18}]nonadeca-12(19), 13,15(18),16-tetraene-8,1′-cyclopropane]-9-one]
7.36 | C[C@H]1NC(=O)C2(CCCCCCn3c(-c4nc5cc(C(=O)N[C@H]6CNCC[C@@H]6F)c(F)cc5n4C4CC4)cc4ccc1nc43)COC2 [Example 603, 1-cyclopropyl-6-fluoro-~ {N}-[(3~{S},4~{S})-4-fluoro-3-piperidyl]-2-[(11~{R})-11-methyl-9-oxo-spiro[1,10,19-triazatricyclo [10.5.2.0^{15,18}]nonadeca-12,14,16,18-tetraene-8,3′-oxetane]-17-yl] benzimidazole-5-carboxamide]
6.79 | COc1cc(C(=O)N[C@H]2CNC[C@@H](O)C2)cc2nc(-c3cc4ccc5nc4n3CCCCCCC(C)(C)C(=O)N[C@@H]5C)n(C)c12 [Example 59, ~{N}-[(3~{R},5~{S})-5-hydroxy-3-piperidyl]-7-methoxy-1-methyl-2-[(11~{R})-8,8,11-trimethyl-9-oxo-1,10,19-triazatricyclo[10.5.2.0^{15,18}]nonadeca-12(19),13,15(18),16-tetraen-17-yl]benzimidazole-5-carboxamide]
